From patent publication US9113629B2, “4-amino-6-(4-substituted-phenyl)-picolinates and 6-amino-2-(4-substituted-phenyl)-pyrimidine-4-carboxylates and their use as herbicides” (DOW AGROSCIENCES LLC, priority 2013, dated 2015)
Where two headings read alike, the source gives them in different places.

System: LAMSS
Assay: Post-emergent Test III, herbicidal activity in wheat and barley
Type: in vivo
Details: for GR50 LAMSS / GR80 LAMSS: probit analysis; for pest or weed control at 35 g/ha / pest or weed control at 70 g/ha / pest or weed control at 140 g/ha: post-emergence, 504 h, read-out: Visual Growth Reduction (%) 21 Days After Application LAMSS; for pest or weed control at 35 g/ha: 35 g ai/ha; for pest or weed control at 70 g/ha: 70 g ai/ha; for pest or weed control at 140 g/ha: 140 g ai/ha
In short: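 Plants at the second to third true-leaf stage, grown in a greenhouse at about 18/17 °C with a 14 h photoperiod, were sprayed post-emergence at 187 L/ha with the high rate and ½× to 1/16× serial dilutions in an acetone/DMSO/crop-oil/surfactant carrier. Injury was rated visually at 21 d on a 0–100% scale, and GR20–GR90 were derived by probit analysis.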

[1] = Table 8, dose for 50 percent growth reduction, 21 d
[2] = Table 8, dose for 80 percent growth reduction, 21 d
[3] = dose for growth reduction of 50 percent, 21 days after application
[4] = dose for growth reduction of 80 percent, 21 days after application

Row | SMILES | GR50 LAMSS [1] [g ai/ha] | GR80 LAMSS [2] [g ai/ha] | pest or weed control at 35 g/ha (Table 8, post-emergent, 21 d) [%] | pest or weed control at 70 g/ha (Table 8, post-emergent, 21 d) [%] | pest or weed control at 35 g/ha [%] | pest or weed control at 70 g/ha [%] | pest or weed control at 140 g/ha [%] | GR50 LAMSS [3] [g ai/ha] | GR80 LAMSS [4] [g ai/ha]
1 | COC(=O)c1nc(-c2ccc(I)c(F)c2)nc(N)c1OC [Compound 27, Methyl 6-amino-2-(3-fluoro-4-iodophenyl)-5-methoxypyrimidine-4-carboxylate] | 1 | 14 | 85 to 94 | 85 to 94 | – | – | – | – | –
2 | C=Cc1c(C(=O)O)nc(-c2ccc(Cl)c(F)c2)c(F)c1N [Compound 214] | – | – | – | – | 75 to 84 | 75 to 84 | 85 to 94 | 12 | 33
3 | COC(=O)c1nc(-c2ccc(Br)c(F)c2F)c(F)c(N)c1Cl [Compound 109, methyl 4-amino-6-(4-bromo-2,3-difluorophenyl)-3-chloro-5-fluoropicolinate] | – | – | – | – | 95 to 100 | 95 to 100 | – | 1 | 1
4 | Nc1cc(-c2cc(F)c(Br)cc2F)nc(C(=O)O)c1Cl [Compound 3] | 1 | 1 | 95 to 100 | 95 to 100 | – | – | – | – | –
5 | COC(=O)c1nc(-c2ccc(Br)c(F)c2)nc(N)c1OC [Compound 171, Methyl 6-amino-2-(4-bromo-3-fluorophenyl)-5-methoxypyrimidine-4-carboxylate] | 2 | 11 | 85 to 94 | 95 to 100 | – | – | – | – | –
6 | Nc1c(F)c(-c2ccc(Br)c(F)c2F)nc(C(=O)O)c1Cl [Compound 147] | – | – | – | – | 85 to 94 | 85 to 94 | 85 to 94 | 1 | 8
7 | N#Cc1ccc(-c2nc(C(=O)O)c(Cl)c(N)c2F)cc1 [Compound 39] | – | – | – | – | 95 to 100 | 95 to 100 | 95 to 100 | 1 | 1
8 | COC(=O)c1nc(-c2ccc(Br)cc2)c(F)c(N)c1Cl [Compound 138, Methyl 4-amino-6-(4-bromophenyl)-3-chloro-5-fluoropicolinate] | – | – | – | – | 95 to 100 | 95 to 100 | 95 to 100 | 1 | 1
9 | COC(=O)c1nc(-c2ccc(OC(F)F)cc2)c(F)c(N)c1Cl [Compound 85] | – | – | – | – | 85 to 94 | 85 to 94 | 85 to 94 | 0 | 6
10 | Nc1c(Cl)c(C(=O)O)nc(-c2ccc(Br)c(F)c2)c1Cl [Compound 43, 4-Amino-6-(4-bromo-3-fluorophenyl)-3,5-dichloropicolinic acid] | 1 | 10 | 85 to 94 | 85 to 94 | – | – | – | – | –
11 | COC(=O)c1nc(-c2ccc(Br)c(F)c2F)cc(N)c1Cl [Compound 114, methyl 4-amino-6-(4-bromo-2,3-difluorophenyl)-3-chloropicolinate] | – | – | – | – | 85 to 94 | 85 to 94 | 95 to 100 | 1 | 4
12 | COC(=O)c1nc(-c2ccc(I)cc2)c(F)c(N)c1Cl [Compound 118, Methyl 4-amino-6-(4-iodophenyl)-3-chloro-5-fluoropicolinate] | – | – | – | – | 95 to 100 | 95 to 100 | 95 to 100 | 1 | 0
13 | COC(=O)c1nc(-c2ccc(C(F)F)cc2)c(F)c(N)c1Cl [Compound 209] | – | – | – | – | 85 to 94 | 85 to 94 | – | 7 | 29
14 | COc1c(N)nc(-c2ccc(I)c(F)c2)nc1C(=O)O [Compound 37, 6-Amino-2-(3-fluoro-4-iodophenyl)-5-methoxypyrimidine-4-carboxylic acid] | 1 | 11 | 85 to 94 | 95 to 100 | – | – | – | – | –
15 | Nc1c(F)c(-c2ccc(I)cc2)nc(C(=O)O)c1Cl [Compound 45, 4-amino-3-chloro-5-fluoro-6-(4-iodophenyl)picolinic acid] | – | – | – | – | 85 to 94 | 95 to 100 | 95 to 100 | 1 | 6
16 | Nc1c(F)c(-c2ccc(OC(F)F)cc2)nc(C(=O)O)c1Cl [Compound 143] | – | – | – | – | 85 to 94 | 85 to 94 | 85 to 94 | 1 | 1
17 | Nc1c(F)c(-c2ccc(Br)cc2)nc(C(=O)O)c1Cl [Compound 20] | – | – | – | – | 95 to 100 | 95 to 100 | 95 to 100 | 1 | 1
18 | COC(=O)c1nc(-c2ccc(C#N)cc2)c(F)c(N)c1Cl [Compound 142] | – | – | – | – | 85 to 94 | 85 to 94 | 85 to 94 | 0 | 5
